Measurements as given in ChEMBL document CHEMBL3853265 (Medchemcomm, 2016).

Assays:
Rattus norvegicus [1] = experiment: Toxicity in Wistar Han rat assessed as increase in liver to body weight ratio at >= 30 mg/kg/day, po administered for 14 days; assay type: organism-based; settings: in vivo, 336 h
[2] = Toxicity in dog assessed as emesis at 30 mg/kg, po administered as single dose measured 30 mins post dose; assay type: organism-based, Canis lupus familiaris; settings: in vivo, 0.5 h
BCRP (ABCG2) = target: T1, BCRP (ABCG2) (Homo sapiens, UniProt Q9UNQ0); experiment: Substrate activity at BCRP (unknown origin) assessed as efflux ratio of permeability; assay type: ADME; settings: not told
T1 sequence (Q9UNQ0 whole entry): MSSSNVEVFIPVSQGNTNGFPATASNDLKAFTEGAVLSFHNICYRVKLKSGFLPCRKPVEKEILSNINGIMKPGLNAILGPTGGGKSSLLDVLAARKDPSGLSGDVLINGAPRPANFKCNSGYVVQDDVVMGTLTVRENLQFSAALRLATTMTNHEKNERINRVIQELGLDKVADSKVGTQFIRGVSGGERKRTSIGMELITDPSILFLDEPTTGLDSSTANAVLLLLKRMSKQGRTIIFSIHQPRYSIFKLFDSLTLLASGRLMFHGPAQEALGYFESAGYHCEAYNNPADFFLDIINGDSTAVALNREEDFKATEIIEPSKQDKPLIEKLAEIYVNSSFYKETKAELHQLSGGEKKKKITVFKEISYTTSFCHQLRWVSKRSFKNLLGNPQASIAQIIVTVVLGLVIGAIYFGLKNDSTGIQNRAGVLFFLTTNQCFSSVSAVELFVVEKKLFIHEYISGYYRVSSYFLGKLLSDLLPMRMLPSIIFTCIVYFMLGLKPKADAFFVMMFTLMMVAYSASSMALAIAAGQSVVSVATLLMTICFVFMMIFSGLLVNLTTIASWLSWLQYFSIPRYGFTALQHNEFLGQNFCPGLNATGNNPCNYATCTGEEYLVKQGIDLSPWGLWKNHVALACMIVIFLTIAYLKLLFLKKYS

[3] = Drug metabolism in rat hepatocytes assessed as monooxidation and glucuronidation; assay type: ADME, cell-based, Hepatocyte
[4] = Toxicity in po dosed dog administered as single dose; assay type: organism-based, Canis lupus familiaris; settings: in vivo
[5] = Drug metabolism in rat hepatocytes assessed as glucuronidation in presence of glutathione and water; assay type: ADME, cell-based, Hepatocyte
Cytochrome P450 2C9 = Cytochrome P450 2C9 (Homo sapiens, UniProt P11712); experiment: Inhibition of CYP2C9 (unknown origin); assay type: ADME
Cytochrome P450 2D6 = Cytochrome P450 2D6 (Homo sapiens, UniProt P10635); experiment: Inhibition of CYP2D6 (unknown origin); assay type: ADME
[6] = Toxicity in dog assessed as increase in body temperature at 10 mg/kg, po administered as single dose; assay type: organism-based, Canis lupus familiaris; settings: in vivo
[7] = Plasma clearance in dog at 0.363 mg/kg, iv and 0.737 mg/kg, po; assay type: ADME, organism-based, Canis lupus familiaris
[8] = Half life in dog at 0.363 mg/kg, iv and 0.737 mg/kg, po; assay type: ADME, organism-based, Canis lupus familiaris; settings: in vivo
[9] = Drug recovery in bile of bile duct cannulated rat; assay type: ADME; settings: read-out: Drug recovery
[10] = Toxicity in dog assessed as appearance of red mucous membranes of the gum at 30 mg/kg, po administered as single dose; assay type: organism-based, Canis lupus familiaris; settings: in vivo
[11] = Unbound clearance in dog at 0.363 mg/kg, iv and 0.737 mg/kg, po; assay type: ADME, organism-based, Canis lupus familiaris; settings: in vivo
[12] = Unbound Cmax in dog at 10 mg/kg, po administered as single dose; assay type: ADME, organism-based, Canis lupus familiaris; settings: in vivo
[13] = Drug metabolism in rat hepatocytes assessed as monooxidation; assay type: ADME, cell-based, Hepatocyte
[14] = Toxicity in po dosed dog assessed as drug tolerance administered as single dose; assay type: organism-based, Canis lupus familiaris; settings: in vivo
[15] = Unbound Cmax in dog at 30 mg/kg, po administered as single dose; assay type: ADME, organism-based, Canis lupus familiaris; settings: in vivo
CYP2C9 = CYP2C9 (Homo sapiens, UniProt P11712); experiment: Inhibition of CYP2C9 (unknown origin) at 3 uM relative to control; assay type: ADME
[16] = Drug metabolism in rat hepatocytes assessed as glucuronidation in presence of glutathione; assay type: ADME, cell-based, Hepatocyte
[17] = Toxicity in dog assessed as increase in heart rate at 30 mg/kg, po administered as single dose; assay type: organism-based, Canis lupus familiaris; settings: in vivo
[18] = Unbound Cmax in Wistar Han rat at 100 mg/kg, po […] measured on day 14; assay type: ADME, organism-based; settings: in vivo
[19] = Oral bioavailability in dog at 3 mg/kg; assay type: ADME, organism-based, Canis lupus familiaris; settings: in vivo
[20] = Volume of distribution at steady state in dog at 1 mg/kg, iv and 3 mg/kg, po; assay type: ADME, organism-based, Canis lupus familiaris; settings: in vivo, read-out: Vdss
Rattus norvegicus [21] = experiment: Toxicity in Wistar Han rat at <= 100 mg/kg/day, po administered for 14 days by macroscopic analysis; assay type: organism-based; settings: in vivo, 336 h
[22] = Unbound clearance in dog at 1 mg/kg, iv and 3 mg/kg, po; assay type: ADME, organism-based, Canis lupus familiaris; settings: in vivo

Chain of Cytochrome P450 2D6 (P10635 whole entry): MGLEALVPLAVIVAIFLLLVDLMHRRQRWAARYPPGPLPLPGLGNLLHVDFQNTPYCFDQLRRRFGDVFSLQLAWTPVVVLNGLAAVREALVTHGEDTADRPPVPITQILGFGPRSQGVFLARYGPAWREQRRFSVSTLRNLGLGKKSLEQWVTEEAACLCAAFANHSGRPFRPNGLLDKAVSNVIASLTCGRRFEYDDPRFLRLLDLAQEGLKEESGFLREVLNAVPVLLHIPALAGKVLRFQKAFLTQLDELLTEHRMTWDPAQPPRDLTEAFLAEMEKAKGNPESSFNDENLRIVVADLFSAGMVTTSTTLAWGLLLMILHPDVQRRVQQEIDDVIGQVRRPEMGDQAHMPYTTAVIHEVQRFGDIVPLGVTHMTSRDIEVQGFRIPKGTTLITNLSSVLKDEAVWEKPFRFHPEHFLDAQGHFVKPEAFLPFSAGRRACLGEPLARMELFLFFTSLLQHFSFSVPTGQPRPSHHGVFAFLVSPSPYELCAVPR
Chain of CYP2C9 (P11712 whole entry): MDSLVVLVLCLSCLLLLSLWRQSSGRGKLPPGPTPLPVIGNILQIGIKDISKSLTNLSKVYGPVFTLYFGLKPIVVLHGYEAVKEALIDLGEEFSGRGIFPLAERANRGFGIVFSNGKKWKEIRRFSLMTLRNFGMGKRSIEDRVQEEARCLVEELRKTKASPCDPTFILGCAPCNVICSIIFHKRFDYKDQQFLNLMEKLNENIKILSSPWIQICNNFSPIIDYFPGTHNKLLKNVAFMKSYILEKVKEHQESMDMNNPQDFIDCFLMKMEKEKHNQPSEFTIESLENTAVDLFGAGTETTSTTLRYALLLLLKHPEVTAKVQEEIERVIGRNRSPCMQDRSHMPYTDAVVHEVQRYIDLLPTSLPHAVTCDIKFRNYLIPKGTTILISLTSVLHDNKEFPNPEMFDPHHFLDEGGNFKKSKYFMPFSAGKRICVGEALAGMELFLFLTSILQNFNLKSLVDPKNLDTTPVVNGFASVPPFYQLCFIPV
Chain of Cytochrome P450 2C9 (P11712 whole entry): as above

## O=S(=O)(Nc1ccc(C(F)(F)F)nc1)c1ccccc1C(F)(F)F
Rattus norvegicus [1]
  Activity: Non-Toxic
[2]
  Activity: Toxic
BCRP (ABCG2)
  efflux ratio: 3.3
[3]
  Drug metabolism: Metabolite_Detected
[4]
  MTD: 100 mg/kg
[5]
  Drug metabolism: Metabolite_Detected
Cytochrome P450 2C9
  IC50: 1100 nM
Cytochrome P450 2D6
  IC50: > 30000 nM
[6]
  deltaT: < 0.4 °C
[7]
  clearance: 0.014 mL/min/kg
[8]
  half-life: 103 h
[9]
  dose excreted: < 1%
[10]
  Activity: Toxic
[11]
  CL free: 1.4 mL/min/kg
[12]
  fCmax: 1498 nM
[13]
  Drug metabolism: Metabolite_Detected
[14]
  Activity: <= 30 mg kg-1
[15]
  fCmax: 3.754 µM
CYP2C9
  inhibition at 3 µM: 24%
[16]
  Drug metabolism: Metabolite_Detected
[17]
  Activity: Toxic

## O=S(=O)(Nc1cncc(C(F)(F)F)c1)c1ccccc1C(F)(F)F
[18]
  fCmax: 2153 nM
[19]
  bioavailability: 145%
[20]
  Vd: 0.18 L/kg
Rattus norvegicus [21]
  Activity: Non-Toxic
[22]
  CL free: 17.5 mL/min/kg
